Laboratory results taken from ChEMBL document CHEMBL1153462, “Ulmosides A and B: flavonoid 6-C-glycosides from Ulmus wallichiana, stimulating osteoblast differentiation assessed by alkaline phosphatase” (Bioorg Med Chem Lett, 2009).
Activity calls are given as the source filed them. The rule behind the calls is not given here.

How the values were obtained:
Calvarial cell = experiment: Osteogenic activity in neonatal Sprague-Dawley rat calvarial cell culture assessed as stimulation of differentiation; format: functional, cell-based
Osteoblast = experiment: Osteogenic activity in neonatal Sprague-Dawley rat osteoblasts assessed as stimulation of alkaline phosphatase activity at 100 pM to 10 nM; format: functional, cell-based

Activity (Osteoblast) | Structure (SMILES) | Activity (Calvarial cell)
Active | O=C1C[C@H](c2ccc(O)cc2)Oc2cc(O)c([C@@H]3O[C@H](CO)[C@@H](O)[C@H](O)[C@H]3O)c(O)c21 | Active
Active | O=C1c2c(cc(O)c([C@@H]3O[C@H](CO)[C@@H](O)[C@H](O)[C@H]3O)c2O)O[C@@H](c2ccc(O)c(O)c2)[C@@H]1O | Active
Active | O=c1c(O)c(-c2ccc(O)c(O)c2)oc2cc(O)c([C@@H]3O[C@H](CO)[C@@H](O)[C@H](O)[C@H]3O)c(O)c12 | Active
Active | O=C1c2c(cc(O)c([C@@H]3O[C@H](CO)[C@@H](O)[C@H](O)[C@H]3O)c2O)O[C@@H](c2ccc(O)cc2)[C@@H]1O | Active
